These results are taken from patent US6956030B2, “Use of mometasone furoate for treating upper airway diseases” (Schering Corporation, priority 1994, dated 2005).

Structures are written as SMILES. Marks after values point to notes of the source that are not given here.

The nature of data set [1]: Drug metabolism/clinical pharmacology study: absorption and excretion of total radioactivity after ^3H-MF by various routes. The following applies: for AUC (1) of total radioactivity, dose normalized / Cmax of total radioactivity, dose normalized: based on dose normalized data; for percent of dose as tritiated water in the body: estimated from urinary distillation experiments. The format is in vivo, normal healthy male volunteers. As to the method: In addition, a single-dose absorption, excretion and metabolism study using 200 mcg of ^3H-mometasone furoate as the nasal spray formulation was conducted in 6 normal male volunteers. When systemic absorption (based on urinary excretion) was compared to an intravenously administered dose of ^3H-mometasone furoate, it was 8%.
A drug metabolism and clinical pharmacology study was conducted by administering (by various routes) tritium-labeled mometasone furoate (“^3H-MF”) to 6 groups of 6 normal male volunteers in each group. Blood and urine samples were collected for measurement of total drug (including metabolites).
The objectives of these studies in male volunteers were to determine the absorption, metabolism and excretion of ^3H-labeled mometasone furoate (“^3H-MF”) following administration by oral swallow as a solution and as an aqueous suspension of the monohydrate, by oral inhalation as a suspension from a standard metered dose inhaler (MDI) and from a metered dose inhaler containing a spacer device (Gentlehaler), by nasal inhalation as an aqueous suspension of the mometasone furoate monohydrate from a nasal spray unit and by intravenous injection as a solution.
Thirty-six (n=6 per treatment group) normal healthy male volunteers between the ages of 19 and 40 yr. (average 29 yr.) having weights in accordance with current actuarial tables (+10%) were enrolled in these single dose studies. All subjects were determined to be in good health by their medical history, physical examinations, clinical and laboratory tests.
(§1) Plasma, urine, expired air filters, Respirgard and fecal samples were collected and assayed for radioactivity content. The limit of quantitation (LOQ) for plasma radioactivity ranged from 0.103 to 0.138 ng eq/ml., except for the nasal spray treatment where the LOQ was 0.025 ng eq/ml. Selected plasma, urine and fecal samples were analyzed for metabolite profiles.
Pharmacokinetics—The mean (n=6) plasma concentrations of total radioactivity are illustrated in Summary FIG. 1 and the mean (n=6) pharmacokinetic parameters derived from total plasma radioactivity are presented in Table 2.

Data set [2] can be described thus: HPLC/radio-flow metabolite profiling of plasma, urine and fecal extracts after ^3H-MF. It is filed as in vivo, normal healthy male volunteers.
Source text: The substantial minimization of the systemic effect of mometasone furoate administered intranasally or by oral inhalation has been measured by High Performance Liquid Chromatography (HPLC) metabolite profiling of plasma radioactivity of mometasone furoate, its substantially complete (>98%) first-pass metabolism in the liver and by a minimal reduction in cortisol secretion levels.
as §1
Selected plasma, urine and fecal extracts were analyzed by high performance liquid chromatography (HPLC) with radio-flow monitoring to determine metabolite profiles. […] Approximately 1.5% of the 3 hr. plasma radioactivity was associated with parent drug indicating extensive first past metabolism and rapid inactivation by the liver. In contrast, following intravenous administration, approximately 39% of the 3 hr. plasma radioactivity was associated with parent drug. Approximately 12% and 33% of the 3 hr. plasma radioactivity was associated with parent drug following administration of the MDI and Gentlehaler, respectively. In general, the plasma concentrations of radioactivity following the nasal and oral suspension routes of administration were too low for metabolite profiling.
Hydrolysis of plasma and urine was performed with an enzyme preparation containing both β-glucuronidase and aryl sulfatase. These experiments yielded modest changes in the HPLC metabolite profiles that were consistent with the hydrolytic release of conjugated metabolites.

In the next data set the test system is plasma cortisol. As to the kind of experiment: Phase I rising single-dose safety and tolerance study, metered dose inhaler, 24-hour plasma cortisol. The format is in vivo, healthy male volunteers. As to the method: Several Phase I studies were conducted using mometasone furoate formulated for delivery as a suspension in a pressurized metered dose inhaler (MDI). In a randomized, third-party blinded, placebo-controlled rising single-dose safety and tolerance study, aerosolized mometasone furoate was administered by a metered dose inhaler to eight healthy male volunteers. Doses were administered at 11 p.m. and plasma cortisol concentrations were measured during the following 24-hour period.

For data set [3] the following is noted: of the inhalation dose; cited from earlier work.
For data set [4] the following is noted: cited from earlier work; for efficacy in treating asthma in clinical trials: clinical trials / Phase II; for systemic side effects: in vivo.

With `C[C@@H]1C[C@H]2[C@@H]3CCC4=CC(=O)C=C[C@]4(C)[C@@]3(Cl)[C@@H](O)C[C@]2(C)[C@@]1(OC(=O)c1ccco1)C(=O)CCl` [^3H-MF], the figures for the “% Absorbed (AUC): radioactivity absorbed, dose normalized versus intravenous data” value in data set [1] (Gentlehaler), in data set [1] (MDI) and in data set [1] (oral solution) were 69* %, 23* % and 122%, respectively. For the same molecule, the “% Absorbed (Urine): radioactivity absorbed, urinary excretion compared to the intravenous dose” value in data set [1] (Gentlehaler) is given as 67%; in data set [1] (MDI), 30%; in data set [1] (nasal spray, listed as 3H-mometasone furoate), 8%; in data set [1] (oral solution) it was 104%. Moreover, the “Feces (% dose): administered radioactivity excreted in feces through 168 hr” value was found to be 89% in data set [1] (Gentlehaler); 86% in data set [1] (MDI); 54% in data set [1] (intravenous); 78% in data set [1] (nasal spray); 62% in data set [1] (oral solution); 73% in data set [1] (oral suspension). The “U + F (% dose): total dose recovered in urine and feces through 168 hr” value in data set [1] (Gentlehaler) stood at 105%; in data set [1] (MDI), 94%; in data set [1] (intravenous) it was 78%; in data set [1] (nasal spray) it was 80%; in data set [1] (oral solution), 87%; in data set [1] (oral suspension) it was 75%. Besides, the “Urine (% dose): administered radioactivity excreted in the urine through 168 hr” value in data set [1] (Gentlehaler) is recorded as around 16%; in data set [1] (MDI) it was around 7%. For the same molecule, the results for the “absorption of drug-derived radioactivity (dose normalized AUC and urinary excretion data)” value in data set [1] (Gentlehaler) and in data set [1] (MDI) were 67-69% and 23-30%, respectively. Further, the “AUC (1) of total radioactivity to infinity” value was 110 ng eq hr/ml in data set [1] (Gentlehaler 0.40 mg); 81 ng eq hr/ml in data set [1] (MDI 0.86 mg); 401 ng eq hr/ml in data set [1] (intravenous solution 1.03 mg); “BQL” in data set [1] (nasal spray 0.19 mg); 488 ng eq hr/ml in data set [1] (oral solution 1.03 mg); “BQL” in data set [1] (oral suspension 0.99 mg). Moreover, the “AUC (1) of total radioactivity, dose normalized” value in data set [1] (Gentlehaler) was 275 ng eq hr/ml; in data set [1] (MDI), 94 ng eq hr/ml. Also, the “Cmax of total radioactivity, dose normalized” value stood at 1.71 ng eq/ml in data set [1] (Gentlehaler) and 0.93 ng eq/ml in data set [1] (MDI). In addition, in data set [1] (human, in vivo), the “tritium label exchanged with body water” value is on record as “less than 4%”. The “Cmax (C5min) of total radioactivity” value in data set [1] (intravenous solution 1.03 mg, mean n=6) is 23.7 ng eq/ml. Moreover, the “percent of dose as tritiated water in the body” value in data set [1] (intravenous) was “approximately 3.7%”; in data set [1] (oral solution) it was around 2.9%. For the same molecule, the “Cmax of total radioactivity” value is “BQL**” in data set [1] (nasal spray 0.19 mg, LOQ 0.025 ng eq/ml); “below the limit of quantification” in data set [1] (nasal spray 0.19 mg, LOQ 0.025 ng eq/ml, listed as 3H-mometasone furoate); 4.8 ng eq/ml in data set [1] (oral solution 1.03 mg, mean n=6); “BQL” in data set [1] (oral suspension 0.99 mg, LOQ 0.103 to 0.138 ng eq/ml). Besides, the “route of excretion of radioactivity” value in data set [1] (regardless of dosage form and route of administration) was “predominantly excreted in the feces”. In addition, the “3 hr. plasma radioactivity associated with parent drug” value was around 33% in data set [2] (Gentlehaler), “Approximately 12%” in data set [2] (MDI), “approximately 39%” in data set [2] (intravenous) and “Approximately 1.5%” in data set [2] (oral solution). Moreover, the urine metabolite profile entry in data set [2] (Gentlehaler) is reported as “all of the radioactivity was associated with metabolites more polar than parent drug”. Also, the “urinary and fecal extract metabolite profile” value in data set [2] (intravenous and oral solution) was “all of the radioactivity was associated with metabolites more polar than parent drug”. For the same molecule, the “fecal extract metabolite profile” value in data set [2] (nasal spray, oral suspension, MDI and Gentlehaler) is reported as “presence primarily of mometasone furoate”. In addition, the plasma metabolite profile entry in data set [2] (oral solution) is recorded as “most of the plasma radioactivity was associated with metabolites more polar than the available standards”.
For `CCC(=O)OCC(=O)[C@@]1(OC(=O)CC)[C@@H](C)C[C@H]2[C@@H]3CCC4=CC(=O)C=C[C@]4(C)[C@@]3(Cl)[C@@H](O)C[C@@]21C` [beclomethasone dipropionate], the figures for the “reduction of 24-hour area under the curve plasma cortisol profile (AUC 0-24) compared to placebo” value in the data set with plasma cortisol (single dose 1000 mcg by MDI at 11 p.m.), with plasma cortisol (single dose 2000 mcg by MDI at 11 p.m.) and in the data set with plasma cortisol (single dose 4000 mcg by MDI at 11 p.m.) were 30%, 38% and 65%, respectively.
Turning to `CCCC1O[C@@H]2C[C@H]3[C@@H]4CCC5=CC(=O)C=C[C@]5(C)[C@H]4[C@@H](O)C[C@]3(C)[C@]2(C(=O)CO)O1` (stereo partly shown) [budesonide], the “systemic bioavailability after oral ingestion” value in data set [3] is on record as “greater than 10%”.
On to `CCCC(=O)O[C@]1(C(=O)CSC(=O)CC)CC[C@H]2[C@@H]3CCC4=CC(=O)CC[C@]4(C)[C@H]3[C@@H](O)C[C@@]21C` [butixocort propionate], for which, in data set [4], the “efficacy in treating asthma in clinical trials” value is recorded as “some efficacy” and the systemic side effects entry is recorded as “low systemic side-effects”.
As to `CCS[C@]1(SC)CC[C@H]2[C@@H]3CCC4=CC(=O)C=C[C@]4(C)[C@@]3(F)[C@@H](O)C[C@@]21C` [tipredane], in data set [4], the “efficacy in treating asthma in clinical trials” value is “have not demonstrated a level of efficacy in treating asthma which would be considered therapeutically useful” and the systemic side effects entry is on record as “low systemic side effects”.
